US20240133897A1, “COMPOSITIONS AND METHODS FOR IDENTIFYING AND MODULATING THROMBOTIC CONDITIONS IN A CANCER PATIENT” (Beth Israel Deaconess Medical Center, Inc., priority 2019, published 2024)

Key:
[1] = tested on: HPAF-II cells; assay: Thrombin generation by material released from HPAF-II cells after UPR induction; format: cell-based; conditions: for increase in thrombin generation in pelleted material: pancreatic adenocarcinoma HPAF-II cells exposed to UPR inducers, supernatant pelleted material; for decrease in thrombin generation (release of thrombogenic material): HPAF-II cells, UPR induced, chemical inhibition or siRNA knockdown of UPR components
Excerpt: (§1) The unfolded protein response (UPR) is associated with malignant transformation in pancreatic cancer, but whether or not activation of the UPR is linked to cancer thrombosis has not previously been evaluated. To determine whether UPR signaling functions in the prothrombotic transformation of pancreatic cancer, pancreatic adenocarcinoma cells (HPAF-II cells) were exposed to three UPR inducers (tunicamycin, triptolide and thapsigargin) that act via independent mechanisms. […] Release of thrombogenic material was inhibited by siRNA-mediated knockdown of UPR components including IRE1α (80%±3% decrease) or PERK (60%±10% decrease). […] Apoptosis as detected by caspase-3 cleavage was not observed under these conditions.

[2] = tested on: HPAF-II cells; assay: Flow cytometry of TF-bearing extracellular vesicles from HPAF-II cells after UPR induction; format: cell-based; conditions: for increase in the generation of TF-bearing EVs: HPAF-II cells following UPR induction, flow cytometry
Excerpt: as §1

Compound | increase in thrombin generation in pelleted material [1] | increase in the generation of TF-bearing EVs [2] | inhibition of UPR-induced generation of TF-bearing EVs ([2]; HPAF-II cells, UPR induced) | decrease in thrombin generation (release of thrombogenic material) [1]
tunicamycin | 3 fold | 3 fold | – | –
C[C@H]1CCC/C=C/[C@@H]2C[C@H](O)C[C@H]2[C@H](O)/C=C/C(=O)O1 [Brefeldin A] | – | – | inhibited | –
C/C=C(/C)C(=O)O[C@H]1C(C)=C2[C@H]([C@@H]1OC(=O)CCCCCCC)[C@@](C)(OC(C)=O)C[C@H](OC(=O)CCC)[C@@]1(O)[C@H]2OC(=O)[C@@]1(C)O [thapsigargin] | 3 fold | 3 fold | – | –
CN1CCN(C(=O)c2ccc(-c3ccc4c(C=O)c(O)ccc4c3)s2)CC1 [MKC-3946] | – | – | – | 70%±10%
CC(C)[C@]12O[C@H]1[C@@H]1O[C@]13[C@]1(O[C@H]1C[C@H]1C4=C(CC[C@@]13C)C(=O)OC4)[C@@H]2O [triptolide] | 3 fold | 3 fold | – | –
Cn1cc(-c2ccc3c(c2)CCN3C(=O)Cc2cccc(C(F)(F)F)c2)c2c(N)ncnc21 [GSK2606414] | – | – | – | 80%±5%
